Experimental data as given in patent US20230172959A1, “USE OF NMN FOR THE PREVENTION AND/OR TREATMENT OF A BACK PAIN AND CORRESPONDING COMPOSITIONS” (NUVAMID SA, priority 2020, published 2023).
“And” between values parts separate entries of the source, which are not always exact repeats. Equal entries are not always repeated.

Assays:
chronic lumbalgia [1] = experiment: Visual Analogue Scale (VAS) of lumbalgia pain, 10-day satisfaction study in 12 volunteers; type: in vivo, human; conditions: for VAS lumbalgia pain, median / VAS lumbalgia pain, mean: 5% NMN oil-in-water emulsion topical twice a day, scale 0-100; for VAS lumbalgia pain, median: baseline D 0 72.5; for VAS lumbalgia pain, mean: baseline D 0 73.4
Method: A satisfaction study was carried out on a group of 12 volunteers, aged 42±8 years, consisting of seven female and five male subjects. The main objective of this study was to evaluate the level of satisfaction of subjects with regard to the evolution of their lumbalgia (low back pain) during the morning and/or evening application of a composition according to the invention containing 5% by weight of NMN. The duration of the existence of pains in the lumbar spine region was on average 4±3 years (ie […]) while the current pains of the subjects dated back to 2±3 years pre-baseline (before inclusion). These pains occurred mostly spontaneously (58.3%). More precisely, seven participants presented with a lumbalgia of spontaneous origin, one participant presented with a lumbalgia resulting from a physical or sporting activity, two participants attributed their lumbalgia to the practice of gardening, and two other participants attributed their lumbalgia to another of these causes. The participants therefore all had chronic lumbalgia. A composition in the form of an oil-in-water emulsion comprising 5% NMN was formulated as follows, the ingredients being designated by their INCI (International Nomenclature of Cosmetic Ingredients) name: Aqua, Paraffinum liquidum, Cetyl alcohol, Glyceryl stearate, Benzyl PCA, Ceteareth-20, Ceteareth-12, Cetyl Palmitate, Cocoglycerides, Cetearyl alcohol, Sodium Hydroxide, NMN. The composition was prepared according to any method well known to the person skilled in the art. The study took place over 10 days. At baseline, ie upon inclusion (DO), the selected subjects provide their demographic characteristics (age, weight, height), indicate the period of persistence and intensity of the pain on a Visual Analogue Scale, and complete the WOMAC and Lequesne questionnaires. These different scales were used in order to assess by different means the effect of NMN on lumbalgia. Over the subsequent 9 day period, each evening the subjects fill in the Visual Analogue Scale of pain, ensuring any discomfort or problems arising or the taking of analgesics are reported therein. On day 10, the volunteers complete the WOMAC questionnaire, the Lequesne questionnaire, the Visual Analogue Scale (VAS) of pain, indicating the perceived improvement in lumbalgia pain relief as measured by the PGI-I index (abbreviation for “Patient Global Improvement Impression”), satisfaction with regard to evolution of the lumbalgia on a Likert scale as well as the ease of application and penetration of the composition, assessment of the texture and odour of the composition, likelihood of re-use thereof in the event of recurrence of a similar pain, and recommendation of use to third parties presenting with pain of similar nature. The PGI-I index is an index that serves as means for evaluating the response to a treatment. The Likert scale is a psychometric tool used for measuring an attitude in individuals, which consists of one or more statements for which the individual responding expresses their degree of agreement or disagreement.

chronic lumbalgia [2] = experiment: Lequesne algo-functional index, 10-day satisfaction study in 12 volunteers; type: in vivo, human
Method: As for the Lequesne score, it varies from 0 to 22: the higher the score, the more extreme or even intolerable the impairment. From 8 to 10, the impairment is qualified as significant and for an index score greater than or equal to 10, the impairment is qualified as very significant. A satisfaction study was carried out on a group of 12 volunteers, aged 42±8 years, consisting of seven female and five male subjects. The main objective of this study was to evaluate the level of satisfaction of subjects with regard to the evolution of their lumbalgia (low back pain) during the morning and/or evening application of a composition according to the invention containing 5% by weight of NMN. A composition in the form of an oil-in-water emulsion comprising 5% NMN was formulated as follows, the ingredients being designated by their INCI (International Nomenclature of Cosmetic Ingredients) name: Aqua, Paraffinum liquidum, Cetyl alcohol, Glyceryl stearate, Benzyl PCA, Ceteareth-20, Ceteareth-12, Cetyl Palmitate, Cocoglycerides, Cetearyl alcohol, Sodium Hydroxide, NMN. The composition was prepared according to any method well known to the person skilled in the art. The study took place over 10 days. At baseline, ie upon inclusion (DO), the selected subjects provide their demographic characteristics (age, weight, height), indicate the period of persistence and intensity of the pain on a Visual Analogue Scale, and complete the WOMAC and Lequesne questionnaires. […] On day 10, the volunteers complete the WOMAC questionnaire, the Lequesne questionnaire, the Visual Analogue Scale (VAS) of pain, indicating the perceived improvement in lumbalgia pain relief as measured by the PGI-I index (abbreviation for “Patient Global Improvement Impression”), satisfaction with regard to evolution of the lumbalgia on a Likert scale as well as the ease of application and penetration of the composition, assessment of the texture and odour of the composition, likelihood of re-use thereof in the event of recurrence of a similar pain, and recommendation of use to third parties presenting with pain of similar nature. […]

NC(=O)c1ccc[n+]([C@@H]2O[C@H](COP(=O)([O-])O)[C@@H](O)[C@H]2O)c1 (stereo in doubt) [NMN, nicotinamide mononucleotide]
reduction of lumbalgia pain measured by the VAS (chronic lumbalgia [1]; 10 days of application vs baseline, 5% NMN emulsion topical, p<0.0001): 58.7±29.2% and 58.7% | VAS lumbalgia pain, median (chronic lumbalgia [1]; D 1): 60.5 | VAS lumbalgia pain, mean (chronic lumbalgia [1]; D 1): 61.1 | VAS lumbalgia pain, median (chronic lumbalgia [1]; D 2): 59.0 | VAS lumbalgia pain, mean (chronic lumbalgia [1]; D 2): 56.8 | VAS lumbalgia pain, median (chronic lumbalgia [1]; D 3): 57.5 | VAS lumbalgia pain, mean (chronic lumbalgia [1]; D 3): 52.3 | VAS lumbalgia pain, median (chronic lumbalgia [1]; D 4): 51.0 | VAS lumbalgia pain, mean (chronic lumbalgia [1]; D 4): 49.4 | VAS lumbalgia pain, median (chronic lumbalgia [1]; D 5): 45.5 | VAS lumbalgia pain, mean (chronic lumbalgia [1]; D 5): 45.7 | VAS lumbalgia pain, median (chronic lumbalgia [1]; D 6): 42.5 | VAS lumbalgia pain, mean (chronic lumbalgia [1]; D 6): 42.4 | VAS lumbalgia pain, median (chronic lumbalgia [1]; D 7): 48.0 | VAS lumbalgia pain, mean (chronic lumbalgia [1]; D 7): 45.2 | VAS lumbalgia pain, median (chronic lumbalgia [1]; D 8): 38.0 | VAS lumbalgia pain, mean (chronic lumbalgia [1]; D 8): 35.8 | VAS lumbalgia pain, median (chronic lumbalgia [1]; D 9): 26.0 | VAS lumbalgia pain, mean (chronic lumbalgia [1]; D 9): 28.3 | VAS lumbalgia pain, median (chronic lumbalgia [1]; D 10): 30.0 | VAS lumbalgia pain, mean (chronic lumbalgia [1]; D 10): 30.8±22.6 and 30.8 | mean time period to obtain an initial 50% reduction in pain relative to baseline (chronic lumbalgia [1]; VAS, 5% NMN emulsion topical twice a day): 5.0 ± 2.9 days | reduction in the Lequesne score (chronic lumbalgia [2]; baseline to study endpoint): 38.8% | subjects with no impairment or only a modest or slight impairment (Lequesne) (chronic lumbalgia [2]; end of the study): 83.4% | Lequesne algo-functional score (chronic lumbalgia [2]; study endpoint (day 10), baseline 8.3±2.5, p<0.001, 5% NMN emulsion topical): 5.3±3.8
